Assay in all cases: combination Emax (second highest fraction inhibited in the dose matrix, 72 h); higher = more inhibition; extreme values may be limits of the assay
For experiment [1], the system named is CHSA8926 (Chondrosarcoma). In short, it runs like this:
(§1)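 After 24 hours at 37°C and 5% CO2 in 1536-well plates, cells in DMEM/F12 or RPMI plus 10% FBS received two-drug dose matrices for 72 hours. Viability came from CellTiter-Glo 2.0 luminescence and was scaled as inhibition, anchored at 0 by vehicle wells and at 1 by blank wells. Combination Emax is taken as the second-highest inhibition in the matrix, and Bliss excess as the observed combination effect less EA + EB − EA·EB, with EA and EB the single-agent effects.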

In experiment [2] the test system is CW-2 (Colorectal Carcinoma). In short, it runs like this: as §1
Experiment [3] deals with DAN-G (Pancreatic Carcinoma). In short, it runs like this:
as §1

The test system of experiment [4] is DMS-114 (Small Cell Lung Carcinoma). In short, it runs like this:
as §1

Experiment [5] concerns ESO51 (Esophageal Adenocarcinoma). In short, it runs like this:
as §1

The subject of the next experiment is G-361 (Melanoma). In short, it runs like this: as §1
Experiment [6] has as its system H9 (T-Cell Non-Hodgkin's Lymphoma). In short, it runs like this: as §1
Experiment [7] concerns HCC1187 (Breast Carcinoma). In short, it runs like this: as §1
The subject of experiment [8] is HCC1419 (Breast Carcinoma). In short, it runs like this:
as §1

The subject of experiment [9] is MOG-G-CCM (Low Grade Glioma). In short, it runs like this: as §1
Experiment [10] has as its system MOLM-13 (Acute Myeloid Leukemia). In short, it runs like this:
as §1

Experiment [11] deals with NCCIT (Other Solid Carcinomas). In short, it runs like this: as §1
The subject of experiment [12] is NCI-H661 (Non-Small Cell Lung Carcinoma). In short, it runs like this: as §1
In experiment [13] the test system is NCI-H929 (Plasma Cell Myeloma). In short, it runs like this:
as §1

For experiment [14], the system named is PC-3 (Prostate Carcinoma). In short, it runs like this:
as §1

Experiment [15] concerns RPMI-8226 (Plasma Cell Myeloma). In short, it runs like this: as §1
The next experiment has as its system SJSA-1 (Osteosarcoma). In short, it runs like this:
as §1

In experiment [16] the test system is SNU-398 (Hepatocellular Carcinoma). In short, it runs like this:
as §1

Experiment [17] deals with SUP-B15 (B-Lymphoblastic Leukemia). In short, it runs like this: as §1
For experiment [18], the system named is T-T (Esophageal Squamous Cell Carcinoma). In short, it runs like this: as §1

Turning to `COc1nnc2ccc(N3CCC(c4ccc(OCCN5CCN(C)C(=O)[C@H]5C)cc4)CC3)nn12` [AZD5153] + C[C@@H]1COCCN1C2=NC(=NC(=C2)C3(CC3)[S@](=N)(=O)C)C4=C5C=CNC5=NC=C4 [AZD6738] (first compound max 1 µM, 7x7, partner max 10 µM), the “combination Emax” value was 0.632 in experiment [1]; 0.722 in experiment [2]; 0.726 in [3]; 0.733 in [4]; 0.823 in experiment [5]; 0.872 in the experiment on G-361 (Melanoma). Further, the “combination Emax” value in [6] was 1; in experiment [7], 0.696; in experiment [8], 0.295; in experiment [9], 0.702; in [10] it was 1; in experiment [11], 0.901. The “combination Emax” value turned out to be 0.698 in experiment [12]; 0.991 in experiment [13]; 0.5 in experiment [14]; 0.905 in [15]; 0.634 with SJSA-1 (Osteosarcoma); 0.786 in experiment [16]. Also, the “combination Emax” value in experiment [17] was determined as 1; in [18] it was 0.587.

On to `Cc1c2c(nn1C)CSCc1cc(n(C)n1)CSc1cc(c3ccccc3c1)OCCCc1c(C(=O)O)n(C)c3c-2c(Cl)ccc13` [AZD5991] + C=CCn1c(=O)c2cnc(Nc3ccc(N4CCN(C)CC4)cc3)nc2n1-c1cccc(C(C)(C)O)n1 [AZD1775] (first compound max 1 µM, partner max 1 µM), for which the “combination Emax” value was 0.679 in experiment [1]; 0.402 in experiment [2]; 0.883 in [3]; 0.657 in experiment [4]; 0.591 in experiment [5]; 0.967 in the experiment on G-361 (Melanoma). Besides, the “combination Emax” value in experiment [6] turned out to be 1; in [7], 0.998; in [8], 0.198; in [9], 0.457; in experiment [10], 1; in experiment [11] it was 0.86. The “combination Emax” value in experiment [12] came to 0.949; in experiment [13], 1; in [14], 0.245; in [15], 0.984; in the experiment on SJSA-1 (Osteosarcoma), 0.387; in experiment [16], 1. The “combination Emax” value in experiment [17] came out at 1; in experiment [18], 0.915.

As to `CN(C)CCCOc1ccc(-c2ccc3ncc4c(c3c2)n(C2CCOCC2)c(=O)n4C)cn1` [AZD0156] + O=C(c1cc(Cc2n[nH]c(=O)c3ccccc23)ccc1F)N1CCN(C(=O)C2CC2)CC1 [Olaparib] (first compound max 3 µM, partner max 3 µM), the “combination Emax” value in [1] amounted to 0.467; in [2], 0.177; in experiment [3] it was 0.576; in experiment [4], 0.414; in experiment [5] it was 0.348; with G-361 (Melanoma), 0.267. The “combination Emax” value in experiment [6] was determined as 0.445; in [7], 0.197; in experiment [8], 0.187; in experiment [9] it was 0.289; in experiment [10], 0.563; in experiment [11], 0.194. The “combination Emax” value is 0.217 in experiment [12]; 0.863 in experiment [13]; 0.199 in experiment [14]; 0.421 in [15]; 0.331 in the experiment on SJSA-1 (Osteosarcoma); 0.387 in experiment [16]. In addition, the “combination Emax” value in [17] was 0.675; in experiment [18] it was 0.346.

As to `CCN(CCO)CCCOc1ccc2c(Nc3cc(CC(=O)Nc4cccc(F)c4)[nH]n3)ncnc2c1` [AZD2811] + O=C(c1cc(Cc2n[nH]c(=O)c3ccccc23)ccc1F)N1CCN(C(=O)C2CC2)CC1 [Olaparib] (first compound max 1 µM, 7x7, partner max 10 µM), the “combination Emax” value was 0.3 in experiment [1]; 0.162 in experiment [2]; 0.218 in experiment [3]; 0.177 in experiment [4]; 0.118 in [5]; 0.34 in the experiment on G-361 (Melanoma). In addition, the “combination Emax” value in experiment [6] is 0.71; in experiment [7], 0.824; in [8] it was 0.115; in experiment [9], 0.285; in [10], 1; in experiment [11], 0.226. Moreover, the “combination Emax” value in experiment [12] came to 0.155; in [13], 0.292; in experiment [14] it was 0.179; in experiment [15] it was 0.491; in the experiment with SJSA-1 (Osteosarcoma), 0.17; in experiment [16], 0.365. Moreover, the “combination Emax” value in [17] is 0.976; in experiment [18] it was 0.212.

With `CN(CCO)CC[C@H](CSc1ccccc1)Nc1ccc(S(=O)(=O)NC(=O)c2ccc(N3CCC([C@@H](O)c4ccccc4-c4ccc(Cl)cc4)CC3)cc2)cc1S(=O)(=O)C(F)(F)F` [AZD4320] + C1CN(CCC1(C(=O)N[C@@H](CCO)C2=CC=C(C=C2)Cl)N)C3=NC=NC4=C3C=CN4 [Capivasertib] (first compound max 1 µM, 7x7, partner max 3 µM), the “combination Emax” value in [1] is 0.579; in experiment [2], 0.158; in experiment [3], 0.507; in [4], 0.229; in experiment [5], 0.0266; in the experiment on G-361 (Melanoma), 0.234. Moreover, the “combination Emax” value in experiment [6] was determined as 0.986; in [7], 0.146; in experiment [8], 0.879; in experiment [9] it was 0.528; in experiment [10], 1; in experiment [11] it was 0.378. Moreover, the “combination Emax” value in experiment [12] was 0.0615; in experiment [13], 0.969; in [14], 0.231; in experiment [15], 0.925; in the experiment on SJSA-1 (Osteosarcoma) it was 0.392; in experiment [16], 0.0802. Besides, the figures for the “combination Emax” value in experiment [17] and in experiment [18] were 1 and 0.199, respectively.

These data come from the supplement of paper PMC11061612.
